# According to patent US9765067B2, “Thiophen-2-yl-pyridin-2-yl-1H-pyrazole-4-carboxylic acid derivatives and the use thereof as soluble guanylate cyclase activators” (Novartis AG, priority 2014, dated 2017):
# Target: T1, soluble guanylate cyclase (human GUCYA3/GUCYB3) overexpressed in CHO cells (Homo sapiens, UniProt Q02108+Q02153)
# T1 construct: expressed in transfected cells
# T1 sequence (Q02108 1-690 partner): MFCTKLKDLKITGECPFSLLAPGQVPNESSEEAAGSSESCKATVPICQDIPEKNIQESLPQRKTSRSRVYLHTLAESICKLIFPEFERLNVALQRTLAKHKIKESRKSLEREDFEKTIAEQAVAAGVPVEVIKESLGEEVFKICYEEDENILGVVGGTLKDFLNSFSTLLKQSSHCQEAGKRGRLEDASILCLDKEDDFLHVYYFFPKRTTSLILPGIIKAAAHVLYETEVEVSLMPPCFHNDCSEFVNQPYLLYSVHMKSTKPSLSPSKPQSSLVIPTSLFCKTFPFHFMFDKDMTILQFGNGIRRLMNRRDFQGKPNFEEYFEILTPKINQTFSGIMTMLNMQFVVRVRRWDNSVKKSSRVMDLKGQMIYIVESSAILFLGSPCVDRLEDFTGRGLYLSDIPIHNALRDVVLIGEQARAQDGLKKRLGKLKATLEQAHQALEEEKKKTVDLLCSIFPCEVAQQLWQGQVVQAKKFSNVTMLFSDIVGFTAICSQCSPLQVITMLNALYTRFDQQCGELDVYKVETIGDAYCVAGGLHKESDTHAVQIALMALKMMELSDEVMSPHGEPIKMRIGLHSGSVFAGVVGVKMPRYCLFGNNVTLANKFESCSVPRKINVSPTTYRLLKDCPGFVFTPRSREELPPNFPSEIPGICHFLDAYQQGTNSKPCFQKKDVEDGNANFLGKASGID
# T1 sequence (Q02153 1-619): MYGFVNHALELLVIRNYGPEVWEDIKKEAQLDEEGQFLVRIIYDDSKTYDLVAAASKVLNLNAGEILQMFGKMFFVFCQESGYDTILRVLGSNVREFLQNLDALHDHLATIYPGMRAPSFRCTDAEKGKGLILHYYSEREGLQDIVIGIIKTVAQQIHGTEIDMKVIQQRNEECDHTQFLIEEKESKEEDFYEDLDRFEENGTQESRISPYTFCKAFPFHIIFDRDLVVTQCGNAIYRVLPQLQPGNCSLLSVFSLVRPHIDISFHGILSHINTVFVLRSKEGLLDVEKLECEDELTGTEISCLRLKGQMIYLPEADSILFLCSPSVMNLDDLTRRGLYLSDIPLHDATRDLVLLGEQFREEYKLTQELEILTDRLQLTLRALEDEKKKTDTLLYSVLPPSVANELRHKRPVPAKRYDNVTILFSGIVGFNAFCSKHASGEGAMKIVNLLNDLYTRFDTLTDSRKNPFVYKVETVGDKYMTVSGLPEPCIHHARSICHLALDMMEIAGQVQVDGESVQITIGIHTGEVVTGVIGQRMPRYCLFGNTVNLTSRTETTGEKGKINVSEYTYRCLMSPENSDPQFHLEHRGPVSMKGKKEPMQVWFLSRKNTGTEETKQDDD
# Assay: CHO cellular assay (cGMP production, HTRF)
# Format: cell-based
# Details: CHO K1 clone 8E10 overexpressing human sGC, Cisbio HTRF, 1 h room temperature, 1 mM IBMX, 20 uM ODQ, minimum quantification limit 0.5 nM
# Summary of the method: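 Stable CHO K1 clone expressing human GUCYA3/GUCYB3. Compounds applied 1 h at room temperature in HBSS, 0.1% BSA, 1 mM IBMX, 20 uM ODQ, 0.5% DMSO. cGMP measured by HTRF and interpolated from a standard curve; EC50 from 4-parameter sigmoidal fit.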
row,EC50,Compound
1,15 nM,"CCC(=O)N1CCC(c2ccc(OCc3ccsc3-c3cccc(-n4ncc(C(=O)O)c4C(F)(F)F)n3)c(C(F)(F)F)c2)CC1 [Example 33-2, (6-(3-((4-(1-Propionylpiperidin-4-yl)-2-(trifluoromethyl)phenoxy)methyl)thiophen-2-yl)pyridin-2-yl)-5-(trifluoromethyl)-1H-pyrazole-4-carboxylic acid]"
2,96 nM,"Cc1cc(C2CCN(C(=O)C3CC3)CC2)ccc1OCc1cc(C(C)C)sc1-c1cccc(-n2ncc(C(=O)O)c2C(F)(F)F)n1 [Example 35-1, 1-(6-(3-((4-(1-(Cyclopropanecarbonyl)piperidin-4-yl)-2-methylphenoxy)methyl)-5-isopropylthiophen-2-yl)pyridin-2-yl)-5-(trifluoromethyl)-1H-pyrazole-4-carboxylic acid]"
3,678 nM,"CCC(=O)N1CCC(c2ccc(OCc3cc(C(C)C)sc3-c3cccc(-n4ncc(C(=O)O)c4C(F)(F)F)n3)c(C)c2)CC1 [Example 35-2, 1-(6-(5-Isopropyl-3-((2-methyl-4-(1-propionylpiperidin-4-yl)phenoxy)methyl)thiophen-2-yl)pyridin-2-yl)-5-(trifluoromethyl)-1H-pyrazole-4-carboxylic acid]"
4,195 nM,"CCCc1cc(COc2ccc(C3CCN(C(=O)CC)CC3)cc2C)c(-c2cccc(-n3ncc(C(=O)O)c3C(F)(F)F)n2)s1 [Example 35-3, 1-(6-(3-((2-Methyl-4-(1-propionylpiperidin-4-yl)phenoxy)methyl)-5-propylthiophen-2-yl)pyridin-2-yl)-5-(trifluoromethyl)-1H-pyrazole-4-carboxylic acid]"
5,2 nM,"Cc1cc(COc2ccc(C3CCN(C(=O)C4CC4)CC3)c(C)c2)c(-c2cccc(-n3ncc(C(=O)O)c3C(F)(F)F)n2)s1 [Example 35-4, 1-(6-(3-((4-(1-(Cyclopropanecarbonyl)piperidin-4-yl)-3-methylphenoxy)methyl)-5-methylthiophen-2-yl)pyridin-2-yl)-5-(trifluoromethyl)-1H-pyrazole-4-carboxylic acid]"
6,3 nM,"Cc1cc(OCc2ccsc2-c2cccc(-n3ncc(C(=O)O)c3C(F)(F)F)n2)ccc1C1CCN(C(=O)C2CC2)CC1 [Example 35-5, 1-(6-(3-((4-(1-(Cyclopropanecarbonyl)piperidin-4-yl)-3-methylphenoxy)methyl)thiophen-2-yl)pyridin-2-yl)-5-(trifluoromethyl)-1H-pyrazole-4-carboxylic acid]"
7,≤ 0.5 nM,"CCc1cc(OCc2cc(C)sc2-c2cccc(-n3ncc(C(=O)O)c3C(F)(F)F)n2)ccc1C1CCN(C(=O)N(C)C)CC1 [Example 35-7, 1-(6-(3-((4-(1-(Dimethylcarbamoyl)piperidin-4-yl)-3-ethylphenoxy)methyl)-5-methylthiophen-2-yl)pyridin-2-yl)-5-(trifluoromethyl)-1H-pyrazole-4-carboxylic acid]"
8,≤ 0.5 nM,"CCc1cc(OCc2cc(C)sc2-c2cccc(-n3ncc(C(=O)O)c3C)n2)ccc1C1CCN(C(=O)N(C)C)CC1 [Example 35-8, 1-(6-(3-((4-(1-(Dimethylcarbamoyl)piperidin-4-yl)-3-ethylphenoxy)methyl)-5-methylthiophen-2-yl)pyridin-2-yl)-5-methyl-1H-pyrazole-4-carboxylic acid]"
9,≤ 0.5 nM,"CCc1cc(OCc2cc(C)sc2-c2cccc(-n3ncc(C(=O)O)c3CC)n2)ccc1C1CCN(C(=O)C2CC2)CC1 [Example 35-9, 1-(6-(3-((4-(1-(Cyclopropanecarbonyl)piperidin-4-yl)-3-ethylphenoxy)methyl)-5-methylthiophen-2-yl)pyridin-2-yl)-5-ethyl-1H-pyrazole-4-carboxylic acid]"
10,≤ 0.5 nM,"CCc1c(C(=O)O)cnn1-c1cccc(-c2sc(C)cc2COc2ccc(C3CCN(C(=O)C4CC4)CC3)cc2C)n1 [Example 35-10, 1-(6-(3-((4-(1-(Cyclopropanecarbonyl)piperidin-4-yl)-2-methylphenoxy)methyl)-5-methylthiophen-2-yl)pyridin-2-yl)-5-ethyl-1H-pyrazole-4-carboxylic acid]"
11,1 nM,"Cc1cc(COc2ccc(C3CCN(C(=O)C4CC4)CC3)c(C3CC3)c2)c(-c2cccc(-n3ncc(C(=O)O)c3C(F)(F)F)n2)s1 [Example 35-12, 1-(6-(3-((4-(1-(Cyclopropanecarbonyl)piperidin-4-yl)-3-cyclopropylphenoxy)methyl)-5-methylthiophen-2-yl)pyridin-2-yl)-5-(trifluoromethyl)-1H-pyrazole-4-carboxylic acid]"
12,1 nM,"CCc1c(C2CCN(C(=O)C3CC3)CC2)ccc(OCc2cc(C)sc2-c2cccc(-n3ncc(C(=O)O)c3C(F)(F)F)n2)c1F [Example 35-13, 1-(6-(3-((4-(1-(Cyclopropanecarbonyl)piperidin-4-y1)-3-ethyl-2-fluorophenoxy)methyl)-5-methylthiophen-2-yl)pyridin-2-yl)-5-(trifluoromethyl)-1H-pyrazole-4-carboxylic acid]"
13,15 nM,"CCc1cc(OCc2cc(C)sc2-c2cccc(-n3ncc(C(=O)O)c3C(F)(F)F)n2)cnc1C1CCN(C(=O)C2CC2)CC1 [Example 35-14, 1-(6-(3-(((6-(1-(Cyclopropanecarbonyl)piperidin-4-yl)-5-ethylpyridin-3-yl)oxy)methyl)-5-methylthiophen-2-yl)pyridin-2-yl)-5-(trifluoromethyl)-1H-pyrazole-4-carboxylic acid]"
14,1.4 nM,"CCCc1cc(OCc2cc(C)sc2-c2cccc(-n3ncc(C(=O)O)c3C(F)(F)F)n2)ccc1C1CCN(C(=O)C2CC2)CC1 [Example 35-15, 1-(6-(3-((4-(1-(Cyclopropanecarbonyl)piperidin-4-yl)-3-propylphenoxy)methyl)-5-methylthiophen-2-yl)pyridin-2-yl)-5-(trifluoromethyl)-1H-pyrazole-4-carboxylic acid]"
15,15 nM,"Cc1cc(C2CCN(C(=O)C3CC3)CC2)ccc1NC(C)c1ccsc1-c1cccc(-n2ncc(C(=O)O)c2C(F)(F)F)c1 (stereo not shown) [Example 36, 1-(3-(3-(1-((4-(1-(Cyclopropanecarbonyl)piperidin-4-yl)-2-methylphenyl)amino)ethyl)thiophen-2-yl)phenyl)-5-(trifluoromethyl)-1H-pyrazole-4-carboxylic acid]"
16,≤ 0.5 nM,"CCc1cc(NCc2cc(C)sc2-c2cccc(-n3ncc(C(=O)O)c3CC)n2)ccc1C1CCN(C(=O)C2CC2)CC1 [Example 37, 1-(6-(3-(((4-(1-(Cyclopropanecarbonyl)piperidin-4-yl)-3-ethylphenyl)amino)methyl)-5-methylthiophen-2-yl)pyridin-2-yl)-5-ethyl-1H-pyrazole-4-carboxylic acid]"
17,≤ 0.5 nM,"CCc1cc(NCc2c(C(F)(F)F)csc2-c2cccc(-n3ncc(C(=O)O)c3CC)n2)ccc1C1CCN(C(=O)C2CC2)CC1 [Example 38, 1-(6-(3-(((4-(1-(Cyclopropanecarbonyl)piperidin-4-yl)-3-ethylphenyl)amino)methyl)-4-(trifluoromethyl)thiophen-2-yl)pyridin-2-yl)-5-ethyl-1H-pyrazole-4-carboxylic acid]"
18,1 nM,"CCc1nc(OCc2cc(C)sc2-c2cccc(-n3ncc(C(=O)O)c3C(F)(F)F)n2)ccc1C1CCN(C(=O)C2CC2)CC1 [Example 39, 1-(6-(3-(((5-(1-(Cyclopropanecarbonyl)piperidin-4-yl)-6-ethylpyridin-2-yl)oxy)methyl)-5-methylthiophen-2-yl)pyridin-2-yl)-5-(trifluoromethyl)-1H-pyrazole-4-carboxylic acid]"
19,370 nM,"Cc1cc(C2CCN(CC(F)(F)F)CC2)ccc1OCc1cc(C(C)C)sc1-c1cccc(-n2ncc(C(=O)O)c2C(F)(F)F)n1 [Example 40, 1-(6-(5-Isopropyl-3-((2-methyl-4-(1-(2,2,2-trifluoroethyl)piperidin-4-yl)phenoxy)methyl)thiophen-2-yl)pyridin-2-yl)-5-(trifluoromethyl)-1H-pyrazole-4-carboxylic acid]"
